From the supplement of paper PMC10307832

How the values were obtained:
Assay in all cases: relative viability (nuclei count vs DMSO), 5 days (fraction); higher = more cells survive
[1] = compound: C1/C(=C\C2=CC=CS2)/C(=O)/C(=C/C3=CC=CS3)/C1 + CC(=O)c1c(C)c2cnc(Nc3ccc(N4CCNCC4)cn3)nc2n(C2CCCC2)c1=O [Palbociclib] (partner 0.5 µM)
How it was run: (§1)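 One day after seeding in 1536-well plates, lung cancer cell lines were dosed by pin tool. Dosing was either single-drug or a fixed anchor-drug dose plus five library-drug doses (not always all listed) in √10 steps. After 5 days, nuclei were stained in one fix-and-stain step and counted on 4× images, and relative viability is the nuclei count of treated wells over that of vehicle wells, given as the median of duplicate plates.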

[2] = compound: C1=CC(=CC=C1C2=CC(=C(S2)NC(=O)N)C(=O)N)F [TPCA-1] + NC(=O)Nc1cc(-c2cccc(F)c2)sc1C(=O)N[C@H]1CCCNC1 [AZD7762] (partner 0.2 µM)
How it was run: as §1

[3] = compound: C1/C(=C\C2=CC=CS2)/C(=O)/C(=C/C3=CC=CS3)/C1 + Cc1nc(Nc2ncc(C(=O)Nc3c(C)cccc3Cl)s2)cc(N2CCN(CCO)CC2)n1 [Dasatinib] (partner 0.075 µM)
How it was run: as §1

[4] = compound: C1=CC(=CC=C1C2=CC(=C(S2)NC(=O)N)C(=O)N)F [TPCA-1] + COc1cccc2cc(-c3nc([C@H]4CC[C@H](C(=O)O)CC4)n4ncnc(N)c34)[nH]c12 [OSI-027] (partner 0.5 µM)
How it was run: as §1

| Cell Line | relative viability ([1]; first compound 0.2 µM) | relative viability ([1]; first compound 0.6325 µM) | relative viability ([1]; first compound 2 µM) | relative viability ([1]; first compound 6.325 µM) | relative viability ([1]; first compound 20 µM) | relative viability ([2]; first compound 0.04 µM) | relative viability ([2]; first compound 0.1265 µM) | relative viability ([2]; first compound 0.4 µM) | relative viability ([2]; first compound 1.265 µM) | relative viability ([2]; first compound 4 µM) | relative viability ([3]; first compound 0.2 µM) | relative viability ([3]; first compound 0.6325 µM) | relative viability ([3]; first compound 2 µM) | relative viability ([3]; first compound 6.325 µM) | relative viability ([3]; first compound 20 µM) | relative viability ([4]; first compound 0.04 µM) | relative viability ([4]; first compound 0.1265 µM) | relative viability ([4]; first compound 0.4 µM) | relative viability ([4]; first compound 1.265 µM) | relative viability ([4]; first compound 4 µM) |
| --- | --- | --- | --- | --- | --- | --- | --- | --- | --- | --- | --- | --- | --- | --- | --- | --- | --- | --- | --- | --- |
| HCC-827 | 0.487 | 0.481 | 0.522 | 0.463 | 0.525 | 0.209 | 0.209 | 0.227 | 0.224 | 0.181 | 0.405 | 0.366 | 0.31 | 0.265 | 0.31 | 0.793 | 0.782 | 0.729 | 0.706 | 0.503 |
| HOP-62 | 0.486 | 0.499 | 0.465 | 0.41 | 0.473 | 0.554 | 0.557 | 0.669 | 0.523 | 0.436 | 0.678 | 0.683 | 0.729 | 0.651 | 0.61 | 0.872 | 0.748 | 0.96 | 0.574 | 0.716 |
| LC-2-ad | 0.526 | 0.483 | 0.488 | 0.333 | 0.481 | 0.883 | 0.803 | 0.837 | 0.83 | 0.221 | 0.667 | 0.59 | 0.655 | 0.482 | 0.626 | 0.971 | 0.753 | 0.813 | 0.744 | 0.407 |
| LCLC-97TM1 | 0.255 | 0.228 | 0.203 | 0.21 | 0.196 | 0.231 | 0.237 | 0.223 | 0.164 | 0.217 | 0.896 | 0.776 | 0.791 | 0.672 | 0.811 | 0.584 | 0.323 | 0.486 | 0.411 | 0.283 |
| LCLC-103H | 0.49 | 0.456 | 0.469 | 0.426 | 0.469 | 0.896 | 0.84 | 0.824 | 0.617 | 0.8 | 0.402 | 0.466 | 0.572 | 0.481 | 0.444 | 0.458 | 0.44 | 0.485 | 0.443 | 0.387 |
| LK-2 | 0.639 | – | 0.706 | 0.787 | 0.732 | 0.593 | – | 0.53 | 0.392 | 0.131 | 0.359 | 0.443 | 0.345 | 0.29 | 0.346 | 0.222 | 0.174 | 0.232 | 0.205 | 0.198 |
| LOU-NH91 | 0.564 | 0.584 | 0.523 | 0.507 | 0.55 | 0.781 | 0.719 | 0.724 | 0.68 | 0.697 | 0.559 | 0.582 | 0.585 | 0.514 | 0.531 | 0.75 | 0.662 | 0.735 | 0.793 | 0.73 |
| NCI-H520 | 0.256 | 0.251 | 0.223 | – | 0.227 | – | – | – | – | – | 0.218 | 0.212 | 0.165 | 0.241 | 0.213 | 0.302 | 0.234 | 0.19 | 0.231 | 0.243 |
| NCI-H596 | – | – | – | – | – | 1.21 | 1.04 | 1.19 | 1.44 | 1.02 | 0.577 | 0.677 | 0.598 | 0.628 | 0.586 | 0.717 | 0.584 | 0.678 | 0.787 | 0.389 |
| NCI-H661 | 0.405 | 0.403 | 0.41 | 0.394 | 0.421 | – | – | – | – | – | 0.998 | 0.801 | 0.811 | 0.833 | 0.85 | 0.734 | 0.665 | 0.749 | 0.607 | 0.39 |
| NCI-H1563 | – | – | – | – | – | – | – | – | – | – | 0.452 | 0.462 | 0.504 | 0.453 | 0.465 | 0.784 | 0.766 | 0.827 | 0.712 | 0.688 |
| NCI-H1623 | – | – | – | – | – | – | – | – | – | – | 0.53 | 0.561 | 0.52 | 0.52 | 0.53 | 0.497 | 0.509 | 0.484 | 0.514 | 0.389 |
| NCI-H1648 | 0.271 | 0.497 | 0.271 | 0.262 | 0.288 | 0.807 | 0.682 | 0.684 | 0.806 | 0.668 | – | – | – | – | – | 0.266 | 0.244 | 0.247 | 0.208 | 0.257 |
| NCI-H1650 | 0.312 | 0.325 | 0.351 | 0.373 | 0.333 | – | – | – | – | – | 0.313 | 0.3 | 0.341 | 0.306 | 0.316 | 0.639 | – | 0.682 | 0.798 | 0.531 |
| NCI-H1703 | – | – | – | – | – | 0.132 | 0.118 | 0.136 | – | 0.122 | – | – | – | – | – | – | – | – | – | – |
| NCI-H2009 | 0.178 | 0.217 | 0.255 | – | 0.208 | – | – | – | – | – | 0.282 | 0.296 | 0.306 | 0.269 | 0.311 | 0.773 | 0.647 | 0.623 | 0.406 | 0.327 |
| NCI-H2023 | 0.454 | 0.386 | 0.495 | 0.235 | 0.332 | – | – | – | – | – | 0.597 | 0.581 | 0.673 | 0.513 | 0.502 | 0.552 | 0.335 | 0.364 | 0.32 | 0.187 |
| NCI-H2228 | 0.784 | 0.697 | 0.61 | 0.793 | 0.686 | – | – | – | – | – | 0.638 | 0.479 | 0.535 | 0.408 | 0.531 | 0.774 | 0.503 | 0.519 | 0.633 | 0.283 |
| SK-LU-1 | 0.39 | 0.443 | 0.427 | 0.357 | 0.399 | – | – | – | – | – | 0.182 | 0.203 | 0.189 | 0.164 | 0.224 | 0.4 | 0.317 | 0.312 | 0.248 | 0.234 |
| SK-MES-1 | 0.347 | 0.321 | 0.329 | 0.311 | 0.292 | – | – | – | – | – | 0.337 | 0.421 | 0.366 | 0.391 | 0.425 | 0.589 | 0.567 | 0.558 | 0.319 | 0.211 |
| SW 1573 | 0.444 | 0.459 | 0.516 | 0.366 | 0.347 | – | – | – | – | – | 0.564 | 0.516 | 0.475 | 0.429 | 0.449 | 0.898 | 0.402 | 0.641 | 0.666 | 0.438 |
